Test results from ChEMBL document CHEMBL1138015, “A 13C NMR approach to categorizing potential limitations of alpha,beta-unsaturated carbonyl systems in drug-like molecules” (Bioorg Med Chem Lett, 2004).

Assays:
[1] = target: T1, Vascular endothelial growth factor receptor 2 (Homo sapiens, UniProt P35968); test: Inhibition of Vascular endothelial growth factor receptor 2(KDR) with DTT (dithiothreitol)
[2] = target: T1, Vascular endothelial growth factor receptor 2; test: Inhibition of Vascular endothelial growth factor receptor 2(KDR) without DTT (dithiothreitol)
[3] = Percent remaining after incubation with NADPH in S9 cell was determined; format: ADME, cell-based

T1 sequence (P35968 whole entry): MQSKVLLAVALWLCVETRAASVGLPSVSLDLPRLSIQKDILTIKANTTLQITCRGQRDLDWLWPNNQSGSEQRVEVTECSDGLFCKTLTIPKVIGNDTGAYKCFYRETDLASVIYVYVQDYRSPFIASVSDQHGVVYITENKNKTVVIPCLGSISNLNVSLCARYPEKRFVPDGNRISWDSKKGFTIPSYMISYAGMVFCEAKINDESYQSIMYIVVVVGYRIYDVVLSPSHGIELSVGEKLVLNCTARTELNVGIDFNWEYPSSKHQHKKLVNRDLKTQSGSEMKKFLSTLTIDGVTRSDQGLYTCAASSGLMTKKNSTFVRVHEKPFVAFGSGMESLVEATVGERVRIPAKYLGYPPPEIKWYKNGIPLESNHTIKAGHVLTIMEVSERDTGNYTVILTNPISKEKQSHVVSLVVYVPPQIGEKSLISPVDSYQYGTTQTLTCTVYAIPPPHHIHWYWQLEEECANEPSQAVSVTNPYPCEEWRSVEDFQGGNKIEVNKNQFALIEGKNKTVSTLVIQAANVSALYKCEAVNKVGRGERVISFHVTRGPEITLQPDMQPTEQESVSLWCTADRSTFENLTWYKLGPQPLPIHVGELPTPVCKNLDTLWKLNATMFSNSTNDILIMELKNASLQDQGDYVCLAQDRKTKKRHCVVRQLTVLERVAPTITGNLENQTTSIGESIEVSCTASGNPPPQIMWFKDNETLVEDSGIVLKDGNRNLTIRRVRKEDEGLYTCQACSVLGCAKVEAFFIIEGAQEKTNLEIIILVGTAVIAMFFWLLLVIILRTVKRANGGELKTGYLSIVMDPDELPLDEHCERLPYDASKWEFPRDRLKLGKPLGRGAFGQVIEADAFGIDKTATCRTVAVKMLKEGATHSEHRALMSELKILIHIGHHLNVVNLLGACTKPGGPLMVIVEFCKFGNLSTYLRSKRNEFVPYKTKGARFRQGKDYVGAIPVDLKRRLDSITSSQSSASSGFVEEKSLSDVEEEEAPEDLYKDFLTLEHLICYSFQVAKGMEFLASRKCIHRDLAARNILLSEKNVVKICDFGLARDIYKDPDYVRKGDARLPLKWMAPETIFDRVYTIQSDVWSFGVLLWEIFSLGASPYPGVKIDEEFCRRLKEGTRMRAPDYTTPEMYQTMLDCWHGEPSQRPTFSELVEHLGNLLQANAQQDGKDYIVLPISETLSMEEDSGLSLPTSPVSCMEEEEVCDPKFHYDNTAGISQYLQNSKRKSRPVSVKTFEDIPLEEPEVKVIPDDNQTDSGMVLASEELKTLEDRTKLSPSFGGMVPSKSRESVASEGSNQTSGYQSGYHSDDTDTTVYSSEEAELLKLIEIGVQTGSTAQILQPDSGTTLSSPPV

**Q.** With `O=C1NN=C(c2cnccn2)/C1=C/c1[nH]c2ccccc2c1-c1ccccc1` as the compound, how does the IC50 [1] read?
**A.** 0.47 µM

**Q.** And the IC50 [2]?
**A.** 0.02 µM

**Q.** Which IC50 [1] does the source give for `Cc1c(/C=C2\C(=O)NN=C2c2cnccn2)[nH]c2ccccc12` here?
**A.** 0.14 µM

**Q.** And the IC50 [2]?
**A.** 0.06 µM

**Q.** Which Remaining activity [3] does the source give for `Cc1[nH]c(/C=C2\C(=O)NN=C2c2cnccn2)c(C)c1CN(C)C` here?
**A.** 18%

**Q.** For `O=C1NN=C(c2cnccn2)/C1=C/c1cc2ccccc2[nH]1`, which IC50 [1] is on record?
**A.** 40 µM

**Q.** What about the IC50 [2] of the same compound?
**A.** 0.41 µM

**Q.** For `O=C1Nc2ccccc2S/C1=C\c1c[nH]c2cc(OCCN3CCOCC3)ccc12`, which IC50 [1] is on record?
**A.** 0.16 µM

**Q.** And the IC50 [2]?
**A.** 0.29 µM

**Q.** What does the source list for `CCN(CC)CCc1c(C)[nH]c(/C=C2\C(=O)NN=C2c2cnccn2)c1C`?
**A.** Remaining activity [3]: 72%; IC50 [1]: 0.08 µM; IC50 [2]: 0.21 µM

**Q.** Which Remaining activity [3] does the source give for `CCN(CC)CCc1c(C)[nH]c(/C=C2\C(=O)NN=C2C2CC2)c1C` here?
**A.** 80%

**Q.** What about the IC50 [1] of the same compound?
**A.** 0.84 µM

**Q.** What about the IC50 [2] of the same compound?
**A.** 2.5 µM

**Q.** With `O=C1Nc2ccccc2S/C1=C\c1c[nH]c2c(C(=O)N3CCC(N4CCCCC4)CC3)cccc12` as the compound, how does the IC50 [1] read?
**A.** 0.17 µM

**Q.** What about the IC50 [2] of the same compound?
**A.** 0.72 µM
